In patent publication US10065927B2, “α-ketoacylic isoniazid compounds, process for producing said compounds, use of the compounds in the treatment of tuberculosis” (priority 2015, dated 2018):
Converted amounts (≈) assume the structure as drawn. “Also recorded” adds a separate entry of the source. Where two headings read alike, the source gives them in different places.

Tests used:
[1] = tested on: Mycobacterium tuberculosis strain H37Rv ATCC 27294; assay: Antimycobacterial evaluation, MIC by microplate Alamar Blue Assay, retested by BACTEC MGIT 960-TB; format: cell-based; settings: for MIC: M. tuberculosis strain H37Rv ATCC 27294, sensitive to first-choice drugs; for antimycobacterial activity (in words): against M. tuberculosis
[2] = tested on: J77-4 lineage murine macrophages; format: cell-based; settings: mouse
Procedure: The cytotoxicity evaluation of compound 2 was performed with J77-4 lineage murine macrophages.

[3] = Mycobacterium tuberculosis, read-out: MIC
[4] = strains sensitive to first-choice drugs

For `CC(=O)NNC(=O)c1ccncc1` [2-acetylisomide, 2-acetylisoniazide, reference compound], the MIC [1] was “Inactive” and the “antimycobacterial activity (in words)” value [1] was “did not show antimycobacterial activity”.
For `CC(=O)Nc1ccccc1C(=O)C(=O)NNC(=O)c1ccncc1` [Compound 2, N-(2-(2-(2-Isonicotinoylhydrazine)-2-Oxoacetyl)Phenyl) Acetamide], the “Cell Viability (%)” value ([2]; 1 nM) was 96.8%, the “Cell Viability (%)” value ([2]; 10 nM) was 97.8% and the “Cell Viability (%)” value ([2]; 100 nM) was 97.9%. For the same compound, the “Cell Viability (%)” value [2]; 1 was 97.4%, the “Cell Viability (%)” value [2]; 10 was 97.3% and the “Cell Viability (%)” value [2]; 100 was 98.2%. For the same compound, the MIC [1, 3] was 0.37 µM (≈ 0.121 µg/mL), the “antimycobacterial activity (in words)” value [1] was “antimycobacterial activity superior to all the first-choice drugs; also recorded: higher potency than all the first-choice drugs” and the “activity relative to pyrazinamide” value [1, 4] was “almost two thousand and two hundred times more active than pyrazinamide”. For the same compound, the “potency relative to ethambutol” value [1, 4] was “more than forty times more potent than ethambutol”, the “potency relative to isoniazid” value [1, 4] was “twice as potent as isoniazid” and the “potency relative to rifampicin” value [1, 4] was “more than three times more potent than rifampicin”.
For `O=C(NNC(=O)c1ccncc1)C(=O)c1ccccc1NC(=O)c1ccccc1` [Compound 4, reference compound], the MIC ([1]; read-out: MIC) was 8.04 µM (≈ 3.12 µg/mL) and the “antimycobacterial activity (in words)” value [1] was “did not show good activity”.
Compound `CC[C@@H](CO)NCCN[C@@H](CC)CO` [Etambutol, ethambutol, reference compound] has an MIC [1, 3] of 15.9 µM (≈ 3.25 µg/mL).
Compound `NNC(=O)c1ccncc1` [Isoniazid] has an MIC [1, 3] of 0.73 µM (≈ 0.1 µg/mL).
In the case of `NC(=O)c1cnccn1` [Pyrazinamide, reference compound], the MIC [1, 3] is reported as 813 µM (≈ 100 µg/mL).
